{"source": "ChEMBL document CHEMBL6182864", "about": "“Design, synthesis and biological evaluation of 3-amino-6-(2-hydroxyphenyl)pyridazin-4-aryl derivatives as SMARCA2/4 degraders” (Eur J Med Chem, 2025)", "key": {"[1]": {"assay": "Half life in SPF Sprague-Dawley rat at 1 mg/kg, iv by LC-MS/MS analysis", "type": "ADME, organism-based", "conditions": "in vivo"}, "[2]": {"system": "MOLM-13", "assay": "Induction of apoptosis in human MOLM-13 cells assessed as late apoptotic cells at 1000 nM measured after 72 hrs by Annexin-V-FITC/propidium iodide staining based flow cytometry (reference value: 3.87%)", "type": "functional"}, "[3]": {"system": "MV4-11", "assay": "Down regulation of MYC mRNA expression in human MV4-11 cells measured after 24 hrs by RT-qPCR analysis", "type": "functional, cell-based", "conditions": "dose 11.1-1000 nM"}, "[4]": {"system": "MV4-11", "assay": "Down regulation of CDC25A mRNA expression in human MV4-11 cells at 11.1 to 33.3 nM measured after 24 hrs by RT-qPCR analysis", "type": "functional, cell-based", "conditions": "dose 11.1-33.3 nM"}, "[5]": {"system": "MOLM-13", "assay": "Induction of apoptosis in human MOLM-13 cells assessed as upregulation of PARP expression measured after 72 hrs by Western blot analysis", "type": "functional, cell-based", "conditions": "dose 100-1000 nM"}, "[6]": {"system": "MV4-11", "assay": "Induction of apoptosis in human MV4-11 cells assessed as viable cells at 1000 nM measured after 72 hrs by Annexin-V-FITC/propidium iodide staining based flow cytometry (reference value: 89.49%)", "type": "functional", "conditions": "read-out: Activity"}, "[7]": {"system": "MV4-11", "assay": "Effect on SMARCA2 mRNA expression in human MV4-11 cells at 1000 nM measured after 24 hrs by RT-qPCR analysis", "type": "functional, cell-based"}, "[8]": {"assay": "Down regulation of SMARCA4 level in human MV4-11 cells at 100 nM measured after 6 hrs by mass spectrometric proteomic analysis relative to control", "type": "functional"}, "[9]": {"assay": "Cmax in SPF Sprague-Dawley rat at 1 mg/kg, iv by LC-MS/MS analysis", "type": "ADME, organism-based", "conditions": "in vivo"}, "[10]": {"system": "MV4-11", "assay": "Induction of apoptosis in human MV4-11 cells assessed as late apoptotic cells at 100 nM measured after 72 hrs by Annexin-V-FITC/propidium iodide staining based flow cytometry (reference value: 1.09%)", "type": "functional"}, "[11]": {"assay": "Tmax in SPF Sprague-Dawley rat at 1 mg/kg, iv by LC-MS/MS analysis", "type": "ADME, organism-based", "conditions": "in vivo"}, "[12]": {"system": "MOLM-13", "assay": "Induction of apoptosis in human MOLM-13 cells assessed as upregulation of cleaved caspase-3 expression measured after 72 hrs by Western blot analysis", "type": "functional, cell-based", "conditions": "dose 100-1000 nM"}, "[13]": {"system": "MV4-11", "assay": "Induction of apoptosis in human MV4-11 cells assessed as upregulation of PARP expression measured after 72 hrs by Western blot analysis", "type": "functional, cell-based", "conditions": "dose 100-1000 nM"}, "[14]": {"system": "MDA-MB-231", "assay": "cells", "conditions": "Homo sapiens, MDA-MB-231, 72 h"}, "[15]": {"system": "MV4-11", "assay": "Down regulation of TRAP1 mRNA expression in human MV4-11 cells at 11.1 to 33.3 nM measured after 24 hrs by RT-qPCR analysis", "type": "functional, cell-based", "conditions": "dose 11.1-33.3 nM"}, "[16]": {"system": "MCF7", "assay": "cells", "conditions": "Homo sapiens, MCF7, 72 h"}, "[17]": {"system": "MOLM-13", "assay": "Induction of apoptosis in human MOLM-13 cells assessed as viable cells at 1000 nM measured after 72 hrs by Annexin-V-FITC/propidium iodide staining based flow cytometry (reference value: 90.28%)", "type": "functional", "conditions": "read-out: Activity"}, "[18]": {"assay": "Tmax in SPF Sprague-Dawley rat at 10 mg/kg, po by LC-MS/MS analysis", "type": "ADME, organism-based", "conditions": "in vivo"}, "[19]": {"assay": "Oral bioavailability in SPF Sprague-Dawley rat at 10 mg/kg by LC-MS/MS analysis", "type": "ADME, organism-based", "conditions": "in vivo"}, "[20]": {"assay": "Half life in SPF Sprague-Dawley rat at 10 mg/kg, po by LC-MS/MS analysis", "type": "ADME, organism-based", "conditions": "in vivo"}, "[21]": {"assay": "AUC (0 to t) in SPF Sprague-Dawley rat at 1 mg/kg, iv by LC-MS/MS analysis", "type": "ADME, organism-based", "conditions": "in vivo"}, "[22]": {"system": "MOLM-13", "assay": "Induction of apoptosis in human MOLM-13 cells assessed as viable cells at 100 nM measured after 72 hrs by Annexin-V-FITC/propidium iodide staining based flow cytometry (reference value: 90.28%)", "type": "functional", "conditions": "read-out: Activity"}, "[23]": {"system": "MOLM-13", "assay": "Cell cycle arrest in human MOLM-13 cells assessed as increase in accumulation of cells at G0/G1 phase measured after 48 hrs by propidium iodide staining based flow cytometry", "type": "functional", "conditions": "dose 100-1000 nM"}, "[24]": {"system": "MOLM-13", "assay": "Induction of apoptosis in human MOLM-13 cells assessed as early apoptotic cells at 300 nM measured after 72 hrs by Annexin-V-FITC/propidium iodide staining based flow cytometry (reference value: 5.57%)", "type": "functional"}, "[25]": {"assay": "Down regulation of PBRM1 level in human MV4-11 cells at 100 nM measured after 6 hrs by mass spectrometric proteomic analysis relative to control", "type": "functional"}, "[26]": {"system": "SUD4", "assay": "cells", "conditions": "Homo sapiens, SU-DHL-4, 72 h"}, "[27]": {"system": "MOLM-13", "assay": "cells", "conditions": "Homo sapiens, MOLM-13, 72 h"}, "[28]": {"system": "MOLM-13", "assay": "Induction of apoptosis in human MOLM-13 cells assessed as early apoptotic cells at 1000 nM measured after 72 hrs by Annexin-V-FITC/propidium iodide staining based flow cytometry (reference value: 5.57%)", "type": "functional"}, "[29]": {"system": "A2780", "assay": "cells", "conditions": "Homo sapiens, A2780, 72 h"}, "[30]": {"assay": "Down regulation of SMARCA2 level in human MV4-11 cells at 100 nM measured after 6 hrs by mass spectrometric proteomic analysis relative to control", "type": "functional"}, "[31]": {"system": "MV4-11", "assay": "Down regulation of PU.1 mRNA expression in human MV4-11 cells at 11.1 to 1000 nM measured after 24 hrs by RT-qPCR analysis", "type": "functional, cell-based", "conditions": "dose 11.1-1000 nM"}}, "note": "Calls of active or inactive are those of the source. The rule behind the calls is not given here.", "data": [{"smiles": "Cc1ncsc1-c1ccc([C@H](C)NC(=O)[C@@H]2C[C@@H](O)CN2C(=O)[C@@H](NC(=O)C2(c3ccc(-c4cc(-c5ccccc5O)nnc4N)cc3)CC2)C(C)(C)C)cc1", "values": [{"measurement": "half-life", "setting": "[1]", "result": 1.91, "unit": "h"}, {"measurement": "Activity", "setting": "[2]", "result": 16.77, "unit": "%"}, {"measurement": "Activity", "setting": "[3]", "result": "Dose-dependent-effect"}, {"measurement": "Activity", "setting": "[4]", "result": "inactive"}, {"measurement": "Activity", "setting": "[5]", "result": "Dose-dependent-effect"}, {"measurement": "viability at 1 µM", "setting": "[6]", "result": 22.1, "unit": "%"}, {"measurement": "Activity", "setting": "[7]", "result": "Active; Little Effect Mrna Level Observed"}, {"measurement": "Activity", "setting": "[8]", "result": ">=50%"}, {"measurement": "Cmax", "setting": "[9]", "result": 1950, "unit": "ng/mL"}, {"measurement": "Activity", "setting": "[10]", "result": 18.96, "unit": "%"}, {"measurement": "Tmax", "setting": "[11]", "result": 1.98, "unit": "min"}, {"measurement": "Activity", "setting": "[12]", "result": "Dose-dependent-effect"}, {"measurement": "Activity", "setting": "[13]", "result": "Dose-dependent-effect"}, {"measurement": "IC50", "setting": "[14]", "result": 24.3, "unit": "µM"}, {"measurement": "Activity", "setting": "[15]", "result": "inactive"}, {"measurement": "IC50", "setting": "[16]", "result": "> 30", "unit": "µM"}, {"measurement": "viability at 1 µM", "setting": "[17]", "result": 25.7, "unit": "%"}, {"measurement": "Tmax", "setting": "[18]", "result": 0.42, "unit": "h"}, {"measurement": "F", "setting": "[19]", "result": 0.62, "unit": "%"}, {"measurement": "half-life", "setting": "[20]", "result": 2.1, "unit": "h"}, {"measurement": "AUCt", "setting": "[21]", "result": 358, "unit": "ng·h/mL"}, {"measurement": "viability at 0.1 µM", "setting": "[22]", "result": 54.1, "unit": "%"}, {"measurement": "Activity", "setting": "[23]", "result": "Dose-dependent-effect"}, {"measurement": "Activity", "setting": "[24]", "result": 58.21, "unit": "%"}, {"measurement": "Activity", "setting": "[25]", "result": ">=50%"}, {"measurement": "IC50", "setting": "[26]", "result": 0.088, "unit": "µM"}, {"measurement": "IC50", "setting": "[27]", "result": 0.023, "unit": "µM"}, {"measurement": "Activity", "setting": "[28]", "result": 57.3, "unit": "%"}, {"measurement": "IC50", "setting": "[29]", "result": 1.79, "unit": "µM"}, {"measurement": "Activity", "setting": "[30]", "result": ">=50%"}, {"measurement": "Activity", "setting": "[31]", "result": "Active"}]}]}
